Results reported in patent US20090299066A1, “TRIAZOLONE DERIVATIVES AS MMP INHIBITORS FOR THE TREATMENT OF ASTHMA AND COPD” (priority 2004, published 2009).

What was measured:
Format in all cases: biochemical
Human MMP12 = target: T1, Human MMP12 (Homo sapiens, UniProt P39900); assay: Isolated enzyme assay, MMP12 catalytic domain, fluorogenic substrate; conditions: recombinant human MMP12 catalytic domain
T1 construct: Recombinant human MMP12 catalytic domain may be expressed and purified as described by Parkar A. A. et al; made in house
T1 sequence (P39900 106-263 limits assumed): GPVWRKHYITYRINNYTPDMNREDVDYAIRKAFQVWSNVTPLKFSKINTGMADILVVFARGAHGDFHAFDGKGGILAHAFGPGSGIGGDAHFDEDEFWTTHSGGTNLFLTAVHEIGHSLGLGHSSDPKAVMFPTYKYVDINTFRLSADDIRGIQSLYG
Protocol: Recombinant human MMP12 catalytic domain may be expressed and purified as described by Parkar A. A. et al, (2000), Protein Expression and Purification, 20:152. The purified enzyme can be used to monitor inhibitors of activity as follows: MMP12 (50 ng/ml final concentration) is incubated for 60 minutes at room temperature with the synthetic substrate Mac-Pro-Cha-Gly-Nva-His-Ala-Dpa-NH2 in assay buffer (0.1M “Tris-HCl” (trade mark) buffer, pH 7.3 containing 0.1M NaCl, 20 mM CaCl2, 0.020 mM ZnCl and 0.05% (w/v) “Brij 35” (trade mark) detergent) in the presence (5 concentrations) or absence of inhibitors. Activity is determined by measuring the fluorescence at λex 320 nm and λem 405 nm. Percent inhibition is calculated as follows: % Inhibition is equal to the […].

Human MMP9 = target: T2, Human MMP9 (Homo sapiens, UniProt P14780); assay: Isolated enzyme assay, MMP9
T2 construct: made in house
T2 sequence (P14780 94-707): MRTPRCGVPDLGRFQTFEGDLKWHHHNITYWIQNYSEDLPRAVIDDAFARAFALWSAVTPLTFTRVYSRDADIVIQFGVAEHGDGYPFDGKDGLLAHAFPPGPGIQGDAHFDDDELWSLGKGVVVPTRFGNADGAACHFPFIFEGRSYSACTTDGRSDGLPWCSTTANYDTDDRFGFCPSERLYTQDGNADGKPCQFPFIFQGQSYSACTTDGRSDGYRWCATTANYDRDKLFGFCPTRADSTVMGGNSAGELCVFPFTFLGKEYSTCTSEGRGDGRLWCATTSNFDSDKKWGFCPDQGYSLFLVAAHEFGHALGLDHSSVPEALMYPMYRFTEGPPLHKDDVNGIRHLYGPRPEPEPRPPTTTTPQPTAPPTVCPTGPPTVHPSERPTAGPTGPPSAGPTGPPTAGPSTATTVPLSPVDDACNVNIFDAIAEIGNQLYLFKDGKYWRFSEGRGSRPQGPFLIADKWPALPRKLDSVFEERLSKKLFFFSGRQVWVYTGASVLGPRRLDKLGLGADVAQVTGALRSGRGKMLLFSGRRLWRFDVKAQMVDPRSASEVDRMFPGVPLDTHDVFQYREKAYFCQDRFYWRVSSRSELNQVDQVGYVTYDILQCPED
From the text: (§1) A protocol for testing against other matrix metalloproteinases, including MMP9, using expressed and purified pro MMP is described, for instance, by C. Graham Knight et al., (1992) FEBS Lett. 296(3):263-266.

Human MMP2 = target: T3, Human MMP2 (Homo sapiens, UniProt P08253); assay: Isolated enzyme assay, MMP2
T3 construct: made in house
T3 sequence (P08253 110-660): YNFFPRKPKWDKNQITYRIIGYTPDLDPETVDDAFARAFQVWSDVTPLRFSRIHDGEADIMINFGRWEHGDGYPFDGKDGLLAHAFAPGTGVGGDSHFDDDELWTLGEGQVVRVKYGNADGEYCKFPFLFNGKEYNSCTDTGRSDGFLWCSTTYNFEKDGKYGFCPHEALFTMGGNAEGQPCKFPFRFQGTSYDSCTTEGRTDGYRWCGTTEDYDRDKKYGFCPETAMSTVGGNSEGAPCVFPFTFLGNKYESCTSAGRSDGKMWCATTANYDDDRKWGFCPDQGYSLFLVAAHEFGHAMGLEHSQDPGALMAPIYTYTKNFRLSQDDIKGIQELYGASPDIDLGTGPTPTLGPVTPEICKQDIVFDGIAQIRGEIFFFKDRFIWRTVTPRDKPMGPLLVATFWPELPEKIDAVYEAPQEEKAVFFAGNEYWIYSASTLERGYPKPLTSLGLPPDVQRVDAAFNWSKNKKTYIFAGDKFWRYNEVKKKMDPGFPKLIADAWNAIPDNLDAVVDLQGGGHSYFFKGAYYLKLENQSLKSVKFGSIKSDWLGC
From the text: as §1

Human MMP19 = target: T4, Human MMP19 (Homo sapiens, UniProt Q99542); assay: Isolated enzyme assay, MMP19
T4 construct: made in house
T4 sequence (Q99542 98-508): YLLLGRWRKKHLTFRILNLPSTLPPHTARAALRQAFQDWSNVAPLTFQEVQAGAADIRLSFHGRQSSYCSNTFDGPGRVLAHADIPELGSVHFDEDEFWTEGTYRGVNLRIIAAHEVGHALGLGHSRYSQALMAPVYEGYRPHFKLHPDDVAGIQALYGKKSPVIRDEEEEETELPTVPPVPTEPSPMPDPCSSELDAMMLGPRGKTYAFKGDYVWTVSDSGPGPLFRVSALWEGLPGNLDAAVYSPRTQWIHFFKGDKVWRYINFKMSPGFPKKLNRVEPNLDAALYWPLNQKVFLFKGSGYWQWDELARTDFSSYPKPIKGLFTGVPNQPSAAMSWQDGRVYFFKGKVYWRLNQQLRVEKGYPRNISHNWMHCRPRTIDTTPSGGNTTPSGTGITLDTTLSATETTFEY
From the text: as §1

Human MMP14 = target: T5, Human MMP14 (Homo sapiens, UniProt P50281); assay: Isolated enzyme assay, MMP14
T5 construct: made in house
From the text: as §1

Human MMP8 = target: T6, Human MMP8 (Homo sapiens, UniProt P22894); assay: Isolated enzyme assay, MMP8
T6 construct: made in house
T6 sequence (P22894 101-467): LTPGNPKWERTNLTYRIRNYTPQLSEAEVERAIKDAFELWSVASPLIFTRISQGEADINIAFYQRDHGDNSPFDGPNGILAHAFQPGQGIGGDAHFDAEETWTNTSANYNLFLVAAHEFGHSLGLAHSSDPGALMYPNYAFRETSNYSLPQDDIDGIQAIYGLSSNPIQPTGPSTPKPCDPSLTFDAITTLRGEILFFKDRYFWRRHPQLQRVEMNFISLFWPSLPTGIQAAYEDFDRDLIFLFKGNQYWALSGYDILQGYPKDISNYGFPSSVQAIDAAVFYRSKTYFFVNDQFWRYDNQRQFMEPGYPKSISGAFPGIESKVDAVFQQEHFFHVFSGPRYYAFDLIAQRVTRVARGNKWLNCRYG
From the text: as §1

| IC50 (Human MMP12) | IC50 (Human MMP9) | IC50 (Human MMP2) | IC50 (Human MMP19) | IC50 (Human MMP14) | IC50 (Human MMP8) | SMILES |
| --- | --- | --- | --- | --- | --- | --- |
| 18 nM | 414 nM | 142 nM | 64 nM | 1750 nM | 31 nM | O=c1[nH]nc(CS(=O)(=O)N2CCN(c3ccc(Cl)cc3)CC2)[nH]1 [Example 4, 5-({[4-(4-Chlorophenyl)piperazin-1-yl]sulfonyl}methyl)-2,4-dihydro-3H-1,2,4-triazol-3-one] |
| 2.4 nM | 5.7 nM | 263 nM | 4300 nM | 6850 nM | 284 nM | O=c1[nH]nc(CS(=O)(=O)N2CC=C(C#Cc3cnc(C(F)(F)F)nc3)CC2)[nH]1 [Example 6, 5-({[4-{[2-(Trifluoromethyl)pyrimidin-5-yl]ethynyl}-3,6-dihydropyridin-1(2H)-yl]sulfonyl}methyl)-2,4-dihydro-3H-1,2,4-triazol-3-one] |
| 65 nM | 318 nM | 1010 nM | – | 6660 nM | 243 nM | O=c1[nH]nc(CCS(=O)(=O)N2CCC(Oc3ccc(Cl)cn3)CC2)[nH]1 [Example 2, 5-[2-({4-[(5-Chloropyridin-2-yl)oxy]piperidin-1-yl}sulfonyl)ethyl]-2,4-dihydro-3H-1,2,4-triazol-3-one] |
